Laboratory results published in ChEMBL document CHEMBL1153489, “Benzothiophene inhibitors of MK2. Part 1: structure-activity relationships, assessments of selectivity and cellular potency” (Bioorg Med Chem Lett, 2009).
The source made the active and inactive calls. The rule behind the calls is not given here.

How the values were obtained:
[1] = biological target: T1, MAP kinase-activated protein kinase 2 (Homo sapiens, UniProt P49137); assay: Inhibition of MK2
[2] = biological target: T1, MAP kinase-activated protein kinase 2; assay: Inhibition of MK2 in human U937 cells assessed as blockade of LPS-stimulated TNFalpha production; format: cell-based, U-937
[3] = biological target: MAP kinase p38 (Homo sapiens) (UniProt O15264+Q15759+Q16539+P53778); assay: Inhibition of p38 phosphorylation in LPS-stimulated human U937 cells; format: cell-based; settings: U-937
[4] = biological target: Mitogen-activated protein kinase 9 (Homo sapiens) (UniProt P45984); assay: Inhibition of JNK2 phosphorylation in LPS-stimulated human U937 cells; format: cell-based; settings: U-937
Chain of Mitogen-activated protein kinase 9 (Homo sapiens) (P45984 whole entry, looked up): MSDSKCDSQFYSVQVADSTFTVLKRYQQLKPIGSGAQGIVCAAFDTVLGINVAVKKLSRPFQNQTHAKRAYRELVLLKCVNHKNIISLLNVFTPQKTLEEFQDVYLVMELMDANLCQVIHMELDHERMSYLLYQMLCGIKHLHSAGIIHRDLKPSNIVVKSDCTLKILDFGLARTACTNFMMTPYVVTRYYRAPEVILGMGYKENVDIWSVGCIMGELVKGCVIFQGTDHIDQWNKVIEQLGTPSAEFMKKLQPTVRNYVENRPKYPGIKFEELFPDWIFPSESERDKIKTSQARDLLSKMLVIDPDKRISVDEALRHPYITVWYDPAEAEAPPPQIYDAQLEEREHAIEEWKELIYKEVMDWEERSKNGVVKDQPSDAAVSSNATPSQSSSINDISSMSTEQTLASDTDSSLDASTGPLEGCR

T1 sequence (P49137 whole entry): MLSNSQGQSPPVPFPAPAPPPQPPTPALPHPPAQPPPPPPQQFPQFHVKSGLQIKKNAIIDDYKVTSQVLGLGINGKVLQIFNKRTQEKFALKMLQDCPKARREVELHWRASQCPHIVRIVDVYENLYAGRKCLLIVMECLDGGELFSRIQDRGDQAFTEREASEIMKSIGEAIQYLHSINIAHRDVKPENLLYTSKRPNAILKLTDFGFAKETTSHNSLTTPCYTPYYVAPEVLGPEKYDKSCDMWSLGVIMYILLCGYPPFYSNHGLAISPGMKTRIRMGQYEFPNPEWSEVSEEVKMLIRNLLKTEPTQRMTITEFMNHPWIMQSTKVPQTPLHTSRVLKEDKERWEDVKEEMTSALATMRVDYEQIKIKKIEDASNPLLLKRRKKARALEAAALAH

| Structure (SMILES) | IC50 [1] | IC50 [2] | Activity [3] | Activity [4] |
| --- | --- | --- | --- | --- |
| COc1cccc(COc2ccc3sc4c(c3c2)NC[C@@H](C)NC4=O)c1 | 0.11 µM | 4.6 µM | – | – |
| C[C@@H]1CNc2c(sc3ccc(O)cc23)C(=O)N1 | 0.19 µM | 3.5 µM | – | – |
| CC(C)COc1ccc2sc3c(c2c1)NC[C@@H](C)NC3=O | 0.03 µM | 1.8 µM | – | – |
| COc1ccc2sc3c(c2c1)NC[C@@H](CO)NC3=O | 0.014 µM | 0.4 µM | inactive | inactive |
| COc1ccc2sc3c(c2c1)NC[C@@H](CN(C)Cc1ccccc1)NC3=O | 1.91 µM | 24 µM | – | – |
| C[C@@H]1CNc2c(sc3ccc(OCC4CC4)cc23)C(=O)N1 | 1.32 µM | 27 µM | – | – |
| COCCOc1ccc2sc3c(c2c1)NC[C@@H](C)NC3=O | 0.27 µM | 3.1 µM | – | – |
| COc1ccc2sc3c(c2c1)NC[C@@H](CNCc1ccccc1)NC3=O | 0.57 µM | 21 µM | – | – |
| COc1ccc2sc3c(c2c1)CCCNC3=O | 0.5 µM | 4.7 µM | – | – |
| COc1ccc2sc3c(c2c1)NCCNC3=O | 0.18 µM | 1.4 µM | – | – |
| CCNC[C@@H]1CNc2c(sc3ccc(OC)cc23)C(=O)N1 | 0.57 µM | 21.6 µM | – | – |
| COc1ccc2sc3c(c2c1)NC[C@@H](CN1CCOCC1)NC3=O | > 20 µM | – | – | – |
| CCCNC[C@@H]1CNc2c(sc3ccc(OC)cc23)C(=O)N1 | 0.45 µM | 14.9 µM | – | – |
| COc1ccc2sc3c(c2c1)NC[C@@H](CN1CCCC1)NC3=O | > 20 µM | – | – | – |
| CCC[C@@H]1CNc2c(sc3ccc(OC)cc23)C(=O)N1 | 1.52 µM | 5.45 µM | – | – |
| COc1ccc2sc3c(c2c1)SCCNC3=O | 1.09 µM | 5.5 µM | – | – |
| COc1ccc2sc3c(c2c1)NC[C@@H](CN)NC3=O | 0.005 µM | 2.6 µM | – | – |
| COC(=O)COc1ccc2sc3c(c2c1)NC[C@@H](C)NC3=O | 3.44 µM | 78 µM | – | – |
